Data: paper PMC10709440, “High-throughput ligand profile characterization in novel cell lines expressing seven heterologous insect olfactory receptors for the detection of volatile plant biomarkers” (Scientific Reports, 2023)

Key:
Experiment in all cases: cell-based
Design in all cases: GCaMP6 calcium fluorescence in stable HEK293 OR+ORCO lines; peak dF normalised to 50 uM VUAA1 (=1)
Drosophila OR71a = target: T1, Drosophila OR71a (Drosophila melanogaster, UniProt Q9VUK5); conditions: HEK293; relative to 50 uM VUAA1 response; below 0.05 set to 0; read-out: % activation
T1 construct: expressed in transfected cells
T1 sequence (Q9VUK5 1-378): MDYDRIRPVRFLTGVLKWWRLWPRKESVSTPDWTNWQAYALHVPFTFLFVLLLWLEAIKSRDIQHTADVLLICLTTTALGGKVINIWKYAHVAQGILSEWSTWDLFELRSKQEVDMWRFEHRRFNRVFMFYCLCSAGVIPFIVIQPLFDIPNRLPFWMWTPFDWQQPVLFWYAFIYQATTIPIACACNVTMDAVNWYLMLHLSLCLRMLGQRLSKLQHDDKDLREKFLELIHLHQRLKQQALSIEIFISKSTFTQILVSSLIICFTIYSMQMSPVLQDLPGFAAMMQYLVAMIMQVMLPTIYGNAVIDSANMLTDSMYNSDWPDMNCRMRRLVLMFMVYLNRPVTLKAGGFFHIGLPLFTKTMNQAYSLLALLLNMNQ
T1 sequence (Q9VNB5 1-486 partner): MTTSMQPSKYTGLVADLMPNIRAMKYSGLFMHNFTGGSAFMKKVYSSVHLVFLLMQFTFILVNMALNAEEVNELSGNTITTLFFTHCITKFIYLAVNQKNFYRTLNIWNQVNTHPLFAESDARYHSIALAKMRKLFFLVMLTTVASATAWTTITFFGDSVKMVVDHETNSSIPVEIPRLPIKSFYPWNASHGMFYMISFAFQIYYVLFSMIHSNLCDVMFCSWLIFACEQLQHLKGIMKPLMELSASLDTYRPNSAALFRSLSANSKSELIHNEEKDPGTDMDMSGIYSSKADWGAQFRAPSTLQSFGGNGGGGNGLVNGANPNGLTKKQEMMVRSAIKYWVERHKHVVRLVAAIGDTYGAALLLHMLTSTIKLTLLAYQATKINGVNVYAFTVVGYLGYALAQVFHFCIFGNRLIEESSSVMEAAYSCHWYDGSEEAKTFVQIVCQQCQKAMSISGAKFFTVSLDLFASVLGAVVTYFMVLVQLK
Procedure: (§1) Twelve thousand to 18,000 cells were plated into each well of a black wall, transparent bottom 384-well microplate (Greiner) 48 h or 72 h before the measurements and were simultaneously treated with 1 μg/mL doxycycline. […] The plate has 24 columns, thus we could record responses in up to eight different cell lines in each plate. On the day of the experiment, the growth medium was replaced with 20 µL assay buffer/well (140 mM NaCl, 5 mM KCl, 2 mM CaCl2, 1 mM MgCl2, 5 mM HEPES-Na, 20 mM glucose, pH 7.3, 340 mOsm). […] Baseline fluorescence (F0) was recorded for 5 s, after which 7 µL VOC buffer (140 mM NaCl, 5 mM KCl, 2 mM CaCl2, 1 mM MgCl2, 5 mM HEPES-Na, 31 mM glucose, 0.1% DMSO, pH 7.3, 340 mOsm) was injected into each well in one row and the fluorescence response was recorded for an additional 30 s, at a rate of one read/sec. VOC solutions (VOC buffer with 4× concentration of the final measured VOC concentration, 9 µL/well was injected) were measured on the same wells in a second round with the same protocol. Each individual concentration of a specific VOC sample was recorded in three wells for the same cell line on the same microplate. The raw data were exported in xls file format, F0 and FMAX values, and the fluorescence intensity changes (∆F) were calculated in Excel (Microsoft) (Supplementary file Data summary.xlsx) using the following equation: ΔF=FMAX-F0/F0 (see also Fig. 1C). On each plate, we recorded the response of each cell line to 50 µM VUAA1. The average of these ∆F values of each cell line were used to calculate the VUAA1-normalized values for the rest of the plate, by dividing VOC response ∆F values by the average VUAA1 response ∆F value of the corresponding OR cell line. Each VOC-OR combination was measured three times as tec The recorded FMAX, F0, ∆F, VUAA1-normalized ∆F values, as well as the OR name, the name of the tested sample, and the final concentration for each well were copied into supplementary file Data summary.xlsx, that was used to summarize all the plates recorded. Here, the averages of the measurements were calculated for each receptor-VOC-concentration combination. […] Each VOC was measured at 1, 10, and 100 µM final concentration on each receptor. VUAA1-normalized response was calculated as described in methods.

Drosophila OR10a = target: T2, Drosophila OR10a (Drosophila melanogaster, UniProt Q9VYZ1); conditions: relative to 50 uM VUAA1 response, below 0.05 set to 0; for activity at 10 µM / activity at 100 µM / activity at 1 µM: HEK293, read-out: % activation; for % activation: agonist
T2 construct: expressed in transfected cells
T2 sequence (Q9VYZ1 1-406): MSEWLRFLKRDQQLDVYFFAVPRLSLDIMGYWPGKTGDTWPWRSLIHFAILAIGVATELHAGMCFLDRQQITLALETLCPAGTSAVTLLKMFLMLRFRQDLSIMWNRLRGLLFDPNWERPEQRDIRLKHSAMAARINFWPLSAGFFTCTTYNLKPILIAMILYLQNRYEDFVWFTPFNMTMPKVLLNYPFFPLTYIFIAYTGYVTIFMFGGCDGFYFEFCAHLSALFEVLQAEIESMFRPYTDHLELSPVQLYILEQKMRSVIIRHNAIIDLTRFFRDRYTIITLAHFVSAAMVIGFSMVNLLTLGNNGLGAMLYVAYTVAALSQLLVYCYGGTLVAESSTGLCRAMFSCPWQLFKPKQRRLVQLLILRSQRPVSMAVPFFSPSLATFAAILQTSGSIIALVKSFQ
T2 sequence (Q9VNB5 1-486 partner): T1 sequence (Q9VNB5 1-486 partner)
Procedure: as §1

Drosophila OR13a = target: T3, Drosophila OR13a (Drosophila melanogaster, UniProt Q9VXL0); conditions: HEK293; relative to 50 uM VUAA1 response; below 0.05 set to 0; read-out: % activation
T3 construct: expressed in transfected cells
T3 sequence (Q9VXL0 1-418): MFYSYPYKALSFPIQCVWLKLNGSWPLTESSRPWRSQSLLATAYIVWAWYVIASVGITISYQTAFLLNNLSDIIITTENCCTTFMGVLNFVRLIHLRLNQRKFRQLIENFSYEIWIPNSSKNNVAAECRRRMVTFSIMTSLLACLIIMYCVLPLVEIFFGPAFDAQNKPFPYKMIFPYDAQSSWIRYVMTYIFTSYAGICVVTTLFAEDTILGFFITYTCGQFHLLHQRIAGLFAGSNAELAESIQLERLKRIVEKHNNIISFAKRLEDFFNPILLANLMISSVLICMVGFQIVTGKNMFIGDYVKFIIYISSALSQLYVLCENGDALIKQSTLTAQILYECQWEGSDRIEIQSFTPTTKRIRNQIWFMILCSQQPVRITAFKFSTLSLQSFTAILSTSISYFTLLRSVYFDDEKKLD
T3 sequence (Q9VNB5 1-486 partner): T1 sequence (Q9VNB5 1-486 partner)
Procedure: as §1

For `OCCc1ccccc1` [phenethyl alcohol], the activity at 1 µM (Drosophila OR71a) was 8.62%.
In the case of `CC1=CCC[C@@]2(C)[C@@H]3CC[C@]12CC3(C)C` [(−)-α-neoclovene], the activity at 10 µM (Drosophila OR10a) is reported as 13.1% and the activity at 100 µM (Drosophila OR10a) is reported as 12.4%.
`COC(=O)c1ccccc1O` [methyl salicylate] gave an activity at 100 µM (Drosophila OR71a) of 11.5%.
`C=C(C)C1CCC2(C)OC2C1` (single isomer, unassigned; (+)) [(+)-limonene oxide] gave an activity at 1 µM (Drosophila OR13a) of 0%, an activity at 10 µM (Drosophila OR13a) of 0% and an activity at 100 µM (Drosophila OR13a) of 0%. The activity at 1 µM (Drosophila OR71a) was 0%, the activity at 10 µM (Drosophila OR71a) was 0% and the activity at 100 µM (Drosophila OR71a) was 0%. For the same compound, the activity at 1 µM (Drosophila OR10a) was 0%, the activity at 10 µM (Drosophila OR10a) was 0% and the activity at 100 µM (Drosophila OR10a) was 0%.
`CCCCCOC(C)=O` [pentyl acetate] was tested, and the activity at 100 µM (Drosophila OR71a) was 8.7%.
`C=C1CC[C@@]23C[C@@H]1C(C)(C)[C@@H]2CC[C@H]3C` [(+)-beta-cedrene] was tested, and the activity at 1 µM (Drosophila OR13a) was 0%, the activity at 10 µM (Drosophila OR13a) was 0% and the activity at 100 µM (Drosophila OR13a) was 0%. It also gave an activity at 1 µM (Drosophila OR71a) of 0%, an activity at 10 µM (Drosophila OR71a) of 0% and an activity at 100 µM (Drosophila OR71a) of 0%. For the same compound, the activity at 1 µM (Drosophila OR10a) was 0%, the activity at 10 µM (Drosophila OR10a) was 0% and the activity at 100 µM (Drosophila OR10a) was 0%.
`Cc1ccc(C)cc1` [p-xylene] was tested, and the activity at 10 µM (Drosophila OR71a) was 6.15%.
For `C=C(C)[C@H]1CC=C(C)CC1` [(R)-(+)-limonene], the activity at 1 µM (Drosophila OR13a) was 0%, the activity at 10 µM (Drosophila OR13a) was 0% and the activity at 100 µM (Drosophila OR13a) was 0%. For the same compound, the activity at 1 µM (Drosophila OR71a) was 0%, the activity at 10 µM (Drosophila OR71a) was 0% and the activity at 100 µM (Drosophila OR71a) was 0%. The activity at 1 µM (Drosophila OR10a) was 0% and the “% activation” value (Drosophila OR10a; 10 µM, 10 / OR10a) was 0.1196%.
In the case of `C=C(C)[C@H]1CC=C(C)CC1` [limonene], the “% activation” value (Drosophila OR10a; 10 µM, 10 / OR10a) is reported as 0% and the “% activation” value (Drosophila OR10a; 100 µM, 100 / OR10a) is reported as 0.05729%.
Work on `C=C1[C@H]2CC[C@@H]3[C@H]2C(C)(C)CCC[C@]13C` [(+)-longifolene] yielded an activity at 1 µM (Drosophila OR13a) of 0%, an activity at 10 µM (Drosophila OR13a) of 0% and an activity at 100 µM (Drosophila OR13a) of 0%. It also gave an activity at 1 µM (Drosophila OR71a) of 0%, an activity at 10 µM (Drosophila OR71a) of 0% and an activity at 100 µM (Drosophila OR71a) of 0%. For the same compound, the activity at 1 µM (Drosophila OR10a) was 8.31%, the activity at 10 µM (Drosophila OR10a) was 5.37% and the activity at 100 µM (Drosophila OR10a) was 0%.
